US20100279976A1, “USE OF ARTEMISININ AND ITS DERIVATIVES IN CANCER THERAPY” (SHANGHAI INSTITUTES FOR BIOLOGICAL SCIENCES, CAS, priority 2009, published 2010)

Tests used:
[1] = test system: Huh-7 hepatoma cells (p53 mutant); assay: MTT cell viability assay, Huh-7; format: cell-based; conditions: Homo sapiens, Huh-7 (p53 mutant), 48 h
Description: (§1) The effects of ART derivatives on the viability of the aforementioned cells may be determined using the MTT assay. Briefly, 2,000 cells per well were plated in triplicate in 96-well plates. After a 24-h incubation, the cells may be treated with varying concentrations of ART derivatives (0, 1, 5, 10, 25, 50, and 100 μmol/L) for 48 h. The MTT assay may be performed according to the manufacture's instruction and the resultant formazan crystals may be dissolved in DMSO (100 μL). The absorbance may be then recorded at 540 nm. The effects of ART derivatives on cell viability may be assessed by comparing the percent cell viability of the treated cells with the vehicle (DMSO)-treated control cells, which may be arbitrarily assigned at 100% viability. The experiment may be repeated thrice under the same conditions.

[2] = test system: HepG2 hepatoma cells (p53 wild-type); assay: MTT cell viability assay, HepG2; format: cell-based; conditions: Homo sapiens, 48 h
Description: as §1

Hep3B xenograft tumors = assay: Hep3B xenograft model in nude mice; format: in vivo
Description: (§2) Female athymic nude mice (nu/nu; 4-6 wk of age) may be obtained from Shanghai Slac Laboratory Animal Co. Ltd. All animals may be fed with commercial diet and water ad libitum. The human HCC xenograft models in mice may be as follows. Briefly, HepG2 and Hep3B cells may be re-suspended in serum-free DMEM with Matrigel basement membrane matrix at a 5:1 ratio. The cell suspension may then be injected (7×10^6 cells; total volume, 0.2 mL) into the left inguinal area of the BALB/c nude mice. The animals may be monitored for activity and physical condition everyday, and the determination of body weight and measurement of tumor mass may be done every 3 d. Tumor mass may be determined by caliper measurement in two perpendicular diameters of the implant and calculated using the formula ½a×b^2, where a stands for the long diameter and b is the short diameter. The animal use and care protocol is approved by the Institutional Review Board of the Institute for Nutritional Sciences, Chinese Academy of Sciences.
(§3) Nude mice bearing HepG2 and Hep3B xenografts, randomly divided into various treatment and control groups (five mice per group), may be treated orally with either ART or DHA suspended in 5% sesame oil+95% saline, at a dose of 50 or 100 mg/kg/d, or a combination of ART or DHA with gemcitabine or with saline (as controls). In the mice receiving combination therapy, 80 mg/kg gemcitabine, representing one fifth of the reported most tolerated dose in mice, may be administered i.p. on days 7, 11, and 15 to avoid possible side effects and to illustrate potential chemo-sensitization effects in this combination regimen.

[3] = test system: OVCAR-3 ovarian carcinoma cells; assay: MTT cell viability assay, OVCAR-3; format: cell-based; conditions: Homo sapiens, OVCAR-3, 48 hrs
Source text: (§4) Human ovarian IOSE144 (immortalized non-tumorigenic human ovarian surface epithelial cells) and ovarian carcinoma (A2780 and OVCAR-3) cells that may be obtained from the American Type Culture Collection (ATCC, Manassas, Va.) are gifts from Dr. Jing Fang (Institute for Nutritional Sciences, Shanghai, China). All cells may be cultured according to the ATCC instructions. The compounds (ARS, ART, ARM and DHA) may be dissolved in DMSO (<0.1%, final concentration).
as §1

HepG2 cells = assay: MTT growth inhibition time course, alone or with gemcitabine; format: cell-based; conditions: Homo sapiens, HepG2, 10 μmol/L
Description: In addition, the growth-inhibitory effects of ART and DHA and the effects in combination with gemcitabine in HepG2 and Hep3B cells may also be determined using the MTT assay. Briefly, 700 cells per well may be plated in 96-well culture plates. After a 24-h incubation, the cells may be treated with 10 μmol/L ART, 10 μmol/L DHA, 10 μg/L gemcitabine, 10 μmol/L ART plus 10 μg/L gemcitabine, or 10 μmol/L DHA plus 10 μg/L gemcitabine for various times (0, 24, 48, 72, and 96 h). The results reflect the average of three replicates.

[4] = test system: IOSE144 immortalized non-tumorigenic ovarian surface epithelial cells; assay: MTT cell viability assay, IOSE144; format: cell-based; conditions: Homo sapiens, IOSE-144, IOSE144, 48 hrs
Source text: as §4, §1

[5] = test system: BEL-7404 hepatoma cells (p53 mutant); assay: MTT cell viability assay, BEL-7404; format: cell-based; conditions: Homo sapiens, BEL-7404 (p53 mutant), 48 h
Description: as §1

[6] = test system: 7702 normal human liver cells; assay: MTT cell viability assay, normal liver cells; format: cell-based; conditions: 7702 cells, 48 h; for IC20: read-out: IC20 (concentration that reduces growth by 20%)
Description: as §1

HepG2 xenograft tumors = assay: HepG2 xenograft model in nude mice; format: in vivo; conditions: for tumor growth inhibition: HepG2 xenograft, 5 d/wk for 4 wk
Description: as §2, §3

Hep3B cells = assay: Cell cycle analysis (propidium iodide, flow cytometry), Hep3B; format: cell-based, human; conditions: 48 h
Description: Cells (2×10^5) may be treated with ART and DHA (0, 1, 10, 25, and 50 μmol/L) as described above for 48 h. The harvested cells may be re-suspended in 200 μL of cold PBS, to which cold ethanol (600 μl) may be added, and the mixture may then be incubated for 2 h at 4° C. After centrifugation, the pellet may be washed with cold PBS, suspended in 500 μL PBS, and incubated with 50 μL RNase (20 μg/mL final concentration) for 30 min. The cells may be incubated with propidium iodide (50 μg/mL final concentration) for 30 min in the dark. The cell cycle distribution may be determined using a FACSAria instrument (BD Biosciences). The experiment may be repeated thrice under the same conditions.

[7] = HepG2 xenograft tissue, Western blot

Row | SMILES | IC20 [1] | IC50 [1] | IC80 [1] | IC20 [2] | IC50 [2] | IC80 [2] | IC20 [3] | IC50 [3] | IC80 [3] | inhibition at 10 µM (HepG2 cells; 24 h, vs vehicle-treated cells) | inhibition at 10 µM (HepG2 cells; 48 h) | inhibition at 10 µM (HepG2 cells; 72 h) | IC20 [4] | IC50 [4] | IC80 [4] | IC20 [5] | IC50 [5] | IC80 [5] | IC80 ([6]; Homo sapiens) | IC20 ([6]; Homo sapiens) | further results
1 | C[C@@H]1CC[C@H]2[C@@H](C)C(=O)O[C@@H]3O[C@@]4(C)CC[C@@H]1[C@]32OO4 [ART, artemisinin] | 0.7 µM | 8.9 µM | 115 µM | 1.3 µM | 14 µM | 145 µM | 0.46 µM | 6.86 µM | 103 µM | 69% | 92% | 96% | 5.6 µM | > 500 µM | > 500 µM | 0.9 µM | 9.9 µM | 107 µM | > 500 µM | 3.6 µM | effect on tumor growth (Hep3B xenograft tumors; Hep3B xenograft, oral 50 and 100 mg/kg/d, alone): slight inhibitory effect on tumor growth; toxic effects (body weight) (Hep3B xenograft tumors; mouse, in vivo): Neither compound causes any observable toxic effects; IC50 [6]: 60.9 µM; IC50 ([6]; Homo sapiens): ≥ 60.9 µM; G1-specific Cdks, cyclin D1, cyclin E, Cdk2, Cdk4, and E2F1 in tumor tissue (HepG2 xenograft tumors; [7]): decrease; MDM2 in tumor tissue (HepG2 xenograft tumors; [7]): decrease; activated caspase-3, cleaved PARP, Rb, p53, and the ratio of Bax/Bcl-2 in tumor tissue (HepG2 xenograft tumors; [7]): increases; p21 and p27 in tumor tissue (HepG2 xenograft tumors; [7]): increase; tumor growth inhibition (HepG2 xenograft tumors; oral 50 mg/kg/d): 30.0%; tumor growth inhibition (HepG2 xenograft tumors; oral 100 mg/kg/d): 39.4%; cells in the G1 phase (Hep3B cells; 1 μmol/L): 66.11%; cells in the G1 phase (Hep3B cells; 10 μmol/L): 67.48%; cells in the G1 phase (Hep3B cells; 25 μmol/L): 68.70%; cells in the G1 phase (Hep3B cells; 50 μmol/L): 62.99%
2 | C[C@H]1[C@@H](O)O[C@@H]2O[C@@]3(C)CC[C@H]4[C@H](C)CC[C@@H]1[C@@]24OO3 [DHA, dihydroartemisinin] | 0.7 µM | 9.6 µM | 131 µM | 1.2 µM | 13.3 µM | 146 µM | 0.56 µM | 6.58 µM | 77.4 µM | 74% | 93% | 97% | 1.84 µM | 106 µM | > 500 µM | 0.7 µM | 9.3 µM | 130 µM | > 500 µM | 3.8 µM | toxic effects (body weight) (Hep3B xenograft tumors; Hep3B xenograft mice): Neither compound causes any observable toxic effects; toxic effects based on observations of bodyweight (HepG2 xenograft tumors; HepG2 xenograft mice, alone or in combination with gemcitabine): neither ART nor DHA causes any observable toxic effects; tumor growth inhibition (HepG2 xenograft tumors; oral 50 mg/kg/d): 36.1%; tumor growth inhibition (HepG2 xenograft tumors; oral 100 mg/kg/d): 60.6%; cells in the G1 phase (Hep3B cells; 1 μmol/L): 68.11%; cells in the G1 phase (Hep3B cells; 10 μmol/L): 69.03%; cells in the G1 phase (Hep3B cells; 25 μmol/L): 70.50%; cells in the G1 phase (Hep3B cells; 50 μmol/L): 62.99%
